Reference: publication PMC4435547 (The journal of maternal-fetal & neonatal medicine : the …, 2009)

Tests used:
[1] = test system: dually perfused human placental lobule
placenta = conditions: cited from earlier work

Row | SMILES | effect of HSA, AAG or their combination in the perfusion medium on transfer of AP across the placental lobule ([1]; HSA, AAG, or their combination) | Antipyrine Fetal/Maternal concentration ratio ([1]; human, 20 µg/mL) | fetal/maternal concentration ratio in presence of HSA versus absence of the protein (placenta)
1 | Cc1cc(=O)n(-c2ccccc2)n1C [Antipyrine, antipyrine] | not affected | 0.84 ± 0.11 | –
2 | COc1ccc(Cl)cc1C(=O)NCCc1ccc(S(=O)(=O)NC(=O)NC2CCCCC2)cc1 [glyburide] | – | – | significantly lower
